The compounds below were run against T1, human mGlu4 receptor (Homo sapiens, UniProt Q14833) (assay: Ca2+ mobilization in vitro assay on recombinant human mGlu4 expressed in HEK293 cells). Conditions: HEK-293 cells stably expressing human mGlu4; L-AP4 added at EC20; Fluo-4 fluorescence; read-out: EC50 (uM) mGlu4 PAM.
T1 construct: expressed in transfected cells; host or cells: HEK-293 (monoclonal, stably transfected)
Type: cell-based
Procedure: Determination of EC50 Values Using a Ca2+ Mobilization In Vitro Assay on Recombinant Human mGlu4 Expressed in HEK293 Cells:
A monoclonal HEK-293 cell line stably transfected with a cDNA encoding for the human mGlu4 receptor was generated; for the work with mGlu4 Positive Allosteric Modulators (PAMs), a cell line with low receptor expression levels and low constitutive receptor activity was selected to allow the differentiation of agonistic versus PAM activity. Cells were cultured according to standard protocols (Freshney, 2000) in Dulbecco's Modified Eagle Medium with high glucose supplemented with 1 mM glutamine, 10% (vol/vol) heat-inactivated bovine calf serum, Penicillin/Streptomycin, 50 μg/ml hygromycin and 15 μg/ml blasticidin (all cell culture reagents and antibiotics from Invitrogen, Basel, Switzerland).
About 24 hrs before an experiment, 5×10^4 cells/well were seeded in poly-D-lysine coated, black/clear-bottomed 96-well plates. The cells were loaded with 2.5 μM Fluo-4 AM in loading buffer (1×HBSS, 20 mM HEPES) for 1 hr at 37° C. and washed five times with loading buffer. The cells were transferred into a Functional Drug Screening System 7000 (Hamamatsu, Paris, France), and 11 half logarithmic serial dilutions of test compound at 37° C. were added and the cells were incubated for 10-30 min. with on-line recording of fluorescence. Following this pre-incubation step, the agonist (2S)-2-amino-4-phosphonobutanoic acid (L-AP4) was added to the cells at a concentration corresponding to EC20 with on-line recording of fluorescence; in order to account for day-to-day variations in the responsiveness of cells, the EC20 of L-AP4 was determined immediately ahead of each experiment by recording of a full dose-response curve of L-AP4.
Responses were measured as peak increase in fluorescence minus basal (i.e. fluorescence without addition of L-AP4), normalized to the maximal stimulatory effect obtained with saturating concentrations of L-AP4. Graphs were plotted with the % maximal stimulatory using XLfit, a curve fitting program that iteratively plots the data using Levenburg Marquardt algorithm. The single site competition analysis equation used was y=A+((B−A)/(1+((x/C)D))), where y is the % maximal stimulatory effect, A is the minimum y, B is the maximum y, C is the EC50, x is the log 10 of the concentration of the competing compound and D is the slope of the curve (the Hill Coefficient). From these curves the EC50 (drug concentration at which 50% of the maximal receptor activation was achieved), the Hill coefficient as well as the maximal response in % of the maximal stimulatory effect obtained with saturating concentrations of L-AP4 were calculated (see Fig. 1).
A depression of the signal observed after addition of the EC20 concentration of L-AP4 was indicative of an inhibitory activity of the test compound.

T1 sequence (Q14833 33-912): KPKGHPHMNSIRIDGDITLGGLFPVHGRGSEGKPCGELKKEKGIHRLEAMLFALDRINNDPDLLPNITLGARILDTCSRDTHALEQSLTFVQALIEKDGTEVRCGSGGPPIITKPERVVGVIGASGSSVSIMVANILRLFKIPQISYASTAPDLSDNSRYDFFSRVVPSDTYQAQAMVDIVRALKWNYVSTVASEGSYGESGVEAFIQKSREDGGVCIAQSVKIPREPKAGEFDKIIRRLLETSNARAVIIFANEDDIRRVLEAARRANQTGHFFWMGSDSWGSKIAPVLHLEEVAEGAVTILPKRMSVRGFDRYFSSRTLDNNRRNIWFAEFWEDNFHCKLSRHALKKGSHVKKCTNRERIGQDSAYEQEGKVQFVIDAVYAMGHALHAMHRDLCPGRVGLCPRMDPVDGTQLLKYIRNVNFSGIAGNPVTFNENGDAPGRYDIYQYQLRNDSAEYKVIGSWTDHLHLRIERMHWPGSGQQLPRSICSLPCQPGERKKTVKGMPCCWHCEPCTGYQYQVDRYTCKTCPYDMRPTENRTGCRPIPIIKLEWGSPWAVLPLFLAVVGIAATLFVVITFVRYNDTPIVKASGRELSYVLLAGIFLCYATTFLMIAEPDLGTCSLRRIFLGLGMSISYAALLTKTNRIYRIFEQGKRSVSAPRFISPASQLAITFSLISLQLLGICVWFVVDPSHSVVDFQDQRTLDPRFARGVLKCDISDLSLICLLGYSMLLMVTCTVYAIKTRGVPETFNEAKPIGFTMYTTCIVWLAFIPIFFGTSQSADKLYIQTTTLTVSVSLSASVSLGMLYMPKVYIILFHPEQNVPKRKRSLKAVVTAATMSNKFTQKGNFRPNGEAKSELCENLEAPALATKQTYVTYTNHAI

Structure (SMILES) | EC50
O=C1N(c2c(F)cc(C#Cc3ccccc3)cc2F)c2nccn2C12CC2 [Example 1, 3-[2,6-Difluoro-4-(2-phenylethynyl)phenyl]-2,3-dihydrospiro[[1,3]diazolo[1,2-a]imidazole-1,1′-cyclopropane]-2-one] | 0.178 µM
Cc1cnc2n1C1(CC1)C(=O)N2c1c(F)cc(NC(=O)c2ccccn2)cc1F [Example 48, N-[3,5-difluoro-4-(3′-methyl-6′-oxo-spiro[cyclopropane-1,5′-imidazo[1,2-a]imidazole]-7′-yl)phenyl]pyridine-2-carboxamide] | 0.377 µM
Cc1cnc2n1C1(CC1)C(=O)N2c1c(F)cc(C#Cc2cccnc2)cc1F [Example 49, 7′-[2,6-difluoro-4-[2-(3-pyridyl)ethynyl]phenyl]-3′-methyl-spiro[cyclopropane-1,5′-imidazo[1,2-a]imidazole]-6′-one] | 0.829 µM
O=C1N(c2c(F)cc(-n3cc(C(F)(F)F)cn3)cc2F)c2ncc(-c3ccccn3)n2C12CC2 [Example 21, 7′-[2,6-difluoro-4-[4-(trifluoromethyl)pyrazol-1-yl]phenyl]-3′-(2-pyridyl)spiro[cyclopropane-1,5′-imidazo[1,2-a]imidazole]-6′-one] | 0.596 µM
O=C1N(c2c(F)cc(C#Cc3cccnc3)cc2F)c2ncc(-c3ccccn3)n2C12CC2 [Example 17, 7′-[2,6-difluoro-4-[2-(3-pyridyl)ethynyl]phenyl]-3′-(2-pyridyl)spiro[cyclopropane-1,5′-imidazo[1,2-a]imidazole]-6′-one] | 0.283 µM
O=C(Nc1cc(F)c(N2C(=O)C3(CC3)n3c(-c4cc[nH]n4)cnc32)c(F)c1)c1ccccn1 [Example 43, N-[3,5-difluoro-4-[6′-oxo-3′-(1H-pyrazol-3-yl)spiro[cyclopropane-1,5′-imidazo[1,2-a]imidazole]-7′-yl]phenyl]pyridine-2-carboxamide] | 0.015 µM
Cn1cnc(-c2cnc3n2C2(CC2)C(=O)N3c2c(F)cc(C#Cc3ccccc3)cc2F)c1 [Example 14, 7′-[2,6-difluoro-4-(2-phenylethynyl)phenyl]-3′-(1-methylimidazol-4-yl)spiro[cyclopropane-1,5′-imidazo[1,2-a]imidazole]-6′-one] | 0.12 µM
O=C(Nc1ccccn1)c1cc(F)c(N2C(=O)C3(CC3)n3c(-c4ccccn4)cnc32)c(F)c1 [Example 22, 3,5-difluoro-4-[6′-oxo-3′-(2-pyridyl)spiro[cyclopropane-1,5′-imidazo[1,2-a]imidazole]-7′-yl]-N-(2-pyridyl)benzamide] | 0.61 µM
O=C1N(c2c(F)cc(C#Cc3ccccc3)cc2F)c2ncc(-c3cncnc3)n2C12CC2 [Example 38, 3-[2,6-Difluoro-4-(2-phenylethynyl)phenyl]-6-(pyrimidin-5-yl)-2,3-dihydrospiro[[1,3]diazolo[1,2-a]imidazole-1,1′-cyclopropane]-2-one] | 0.331 µM
CS(=O)(=O)c1cnc2n1C1(CC1)C(=O)N2c1c(F)cc(C#Cc2ccccc2)cc1F [Example 53, 3′-[2,6-Difluoro-4-(2-phenylethynyl)phenyl]-6′-methanesulfonyl-2′,3′-dihydrospiro[cyclopropane-1,1′-imidazo[1,2-a][1,3]diazole]-2′-one] | 0.69 µM
CC(O)c1cnc2n1C1(CC1)C(=O)N2c1c(F)cc(-n2cc(C(C)(C)C)cn2)cc1F (centres unmarked) [Example 58, 7′-[4-(4-tert-butylpyrazol-1-yl)-2,6-difluoro-phenyl]-3′-(1-hydroxyethyl)spiro[cyclopropane-1,5′-imidazo[1,2-a]imidazole]-6′-one] | 0.842 µM
CC(F)(F)c1ccc(-c2cc(F)c(N3C(=O)C4(CC4)n4ccnc43)c(F)c2)cc1 [Example 6, 1′-(4′-(1,1-difluoroethyl)-3,5-difluoro-[1,1′-biphenyl]-4-yl)spiro[cyclopropane-1,3′-imidazo[1,2-a]imidazol]-2′(1′H)-one] | 0.383 µM
O=C1N(c2c(F)cc(C#Cc3ccccc3)cc2F)c2ncc(I)n2C12CC2 [Example 9, 3-[2,6-difluoro-4-(2-phenylethynyl)phenyl]-6-iodo-2,3-dihydrospiro[[1,3]diazolo[1,2-a]imidazole-1,1′-cyclopropane]-2-one] | 0.245 µM
Cn1cc(-c2cnc3n2C2(CC2)C(=O)N3c2c(F)cc(-c3ccc(C(C)(F)F)cc3)cc2F)cn1 [Example 35, 1′-(4′-(1,1-difluoroethyl)-3,5-difluoro-[1,1′-biphenyl]-4-yl)-5′-(1-methyl-1H-pyrazol-4-yl)spiro[cyclopropane-1,3′-imidazo[1,2-a]imidazol]-2′(1′H)-one] | 0.227 µM
O=C1N(c2c(F)cc(-n3cc(C(F)(F)F)cn3)cc2F)c2ncc(-c3ccncn3)n2C12CC2 [Example 23, 7′-[2,6-difluoro-4-[4-(trifluoromethyl)pyrazol-1-yl]phenyl]-3′-pyrimidin-4-yl-spiro[cyclopropane-1,5′-imidazo[1,2-a]imidazole]-6′-one] | 0.755 µM
CC1(C)C(=O)N(c2c(F)cc(C#Cc3ccccc3)cc2F)c2nccn21 [Example 5, 1-(2,6-difluoro-4-(phenylethynyl)phenyl)-3,3-dimethyl-1H-imidazo[1,2-a]imidazol-2(3H)-one] | 0.468 µM
CC(O)c1cnc2n1C1(CC1)C(=O)N2c1c(F)cc(NC(=O)c2ccccn2)cc1F (centres unmarked) [Example 57, N-[3,5-difluoro-4-[3′-(1-hydroxyethyl)-6′-oxo-spiro[cyclopropane-1,5′-imidazo[1,2-a]imidazole]-7′-yl]phenyl]pyridine-2-carboxamide] | 0.572 µM
CC1(C)C(=O)N(c2c(F)cc(C#Cc3ccccc3)cc2Cl)c2nccn21 [Example 2, 1-(2-chloro-6-fluoro-4-(phenylethynyl)phenyl)-3,3-dimethyl-1H-imidazo[1,2-a]imidazol-2(3H)-one] | 0.359 µM
Cn1cc(-c2cnc3n2C2(CC2)C(=O)N3c2c(F)cc(C#Cc3ccccc3)cc2F)cn1 [Example 29, 3-[2,6-Difluoro-4-(2-phenylethynyl)phenyl]-6-(1-methyl-1H-pyrazol-4-yl)-2,3-dihydrospiro[[1,3]diazolo[1,2-a]imidazole-1,1′-cyclopropane]-2-one] | 0.139 µM
O=C(Nc1cc(F)c(N2C(=O)C3(CC3)n3c(-c4ccccn4)cnc32)c(F)c1)c1ccccn1 [Example 11, N-[3,5-difluoro-4-[6′-oxo-3′-(2-pyridyl)spiro[cyclopropane-1,5′-imidazo[1,2-a]imidazole]-7′-yl]phenyl]pyridine-2-carboxamide] | 0.059 µM
CC1(C)C(=O)N(c2c(F)cc(C#Cc3ccccc3)cc2F)c2ncc(-c3ccccc3)n21 [Example 31, 1-(2,6-difluoro-4-(phenylethynyl)phenyl)-3,3-dimethyl-5-phenyl-1H-imidazo[1,2-a]imidazol-2(3H)-one] | 0.243 µM
CC1(C)C(=O)N(c2c(F)cc(C#Cc3ccccc3)cc2F)c2ncc(I)n21 [Example 8, 1-(2,6-difluoro-4-(phenylethynyl)phenyl)-5-iodo-3,3-dimethyl-1H-imidazo[1,2-a]imidazol-2(3H)-one] | 0.418 µM
O=C1N(c2c(F)cc(C#Cc3ccccc3)cc2F)c2ncc(-c3ccccc3)n2C12CC2 [Example 24, 3-[2,6-Difluoro-4-(2-phenylethynyl)phenyl]-6-phenyl-2,3-dihydrospiro[[1,3]diazolo[1,2-a]imidazole-1,1′-cyclopropane]-2-one] | 0.073 µM

From patent publication US11345708B2, “Substituted imidazo[1,2-a]imidazoles as modulators of metabotropic glutamate receptor 4 activity” (Hoffmann-La Roche Inc., priority 2017, dated 2022)
